In US20050118572A1, “Single cell assessment of viral infection/replication” (The Board of Trustees of the Leland Stanford Junior …, priority 2002, published 2005):

Key:
[1] = tested on: HIV-1 infected CD4 T cells; experiment: Killing / apoptosis (annexin-V, intracellular p24, EMA) of HIV-1 infected CD4 T cells by FACS; format: cell-based, human
Method: (§1) PBMC were infected with a high HIV-1 dose, incubated for three days with indicated concentrations of Gd-Tex, and assessed for annexin-V by flow cytometry. Live CD3 cells were gated and apoptotic percentages quantified for CD4 and CD8 cells.
PBMC were infected with high and low HIV-1 doses and treated for six days with the indicated concentrations and processed as indicated above.
Live CD4 T cells were gated and analyzed for annexin-V and p24 stain.
IL-2 activated, HIV-infected cultures were treated with Gd-Tex at the indicated concentrations for 6 days and processed for flow cytometry. […] Histograms are representative of 4 independent experiments.

[2] = tested on: uninfected CD4 T cells and CD8 T cells; format: cell-based, human
Method: as §1
At Gd-Tex doses below 250 µM, GSH depletion and Gd-Tex toxicity in CD8 T cells and uninfected CD4 T cells was minimal. […] These findings are shown in FIG. 4-5, in which data are shown for subset-defining cell surface marker expression, HIV infection, intracellular GSH and Gd-Tex toxicity (induction of apoptosis and the breaking of the cell permeability barrier), all measured simultaneously for individual cells by 11-color, 13-parameter Hi-D FACS.

[3] = tested on: HIV-1; details: HIV-1 infected PBMC, TCID50=300/1×10^6 cells, FIG. 5
[4] = tested on: glutathione (GSH); experiment: Intracellular glutathione levels by monochlorobimane fluorescence (flow cytometry); format: cell-based, human
Method: PBMC were isolated and HIV-1 infected as described in materials and methods. Intracellular glutathione levels were assessed using monochlorobimane fluorescence and samples were analyzed by flow cytometry.

Compound: CC(=O)[O-].CC(=O)[O-].CCc1c(CC)c2cc3nc(cnc4cc(OCCOCCOCCOC)c(OCCOCCOCCOC)cc4ncc4nc(cc1[n-]2)C(CCCO)=C4C)C(C)=C3CCCO.O.[Gd+3] [Gd-Tex, motexafin gadolinium]
- Killing of HIV-infected (p24+) CD4 T cells ([1]; 3 uM Gd-Tex): selectively killed
- p24 cells among live CD4 T cells infected with HIV-1 ([1]; 50 μM Gd-Tex, 6 days): decrease of p24 cells
- Apoptosis induction in HIV-1 infected CD4 T cells ([1]; Gd-Tex concentrations not cytotoxic to uninfected cells): selectively induced apoptosis
- Gd-Tex toxicity in CD8 T cells and uninfected CD4 T cells [2]: minimal
- Killing of uninfected CD4 T cells and CD8 T cells [2]: did not kill
- HIV-1 production (RT activity, p24 levels) [3]: inhibition of HIV-1 production
- GSH depletion in CD8 T cells and uninfected CD4 T cells ([4]; Gd-Tex doses below 250 µM): minimal
- GSH depletion in T cells in PBMC ([4]; high doses of Gd-Tex): depleted GSH
